The experiment relates to murine TAC model. As to the kind of experiment: Mouse Transverse Aortic Constriction (TAC) Left Ventricular Pressure Overload Model. In kind it is in vivo, C57BLK/6J mice. The conditions noted are these: 10-week mouse TAC, Example 1 at 1, 3, 10 mg/kg/d, Example B at 100 mg/kg/d. The text has this:
Male C57BLK/6J mice (10-12 weeks old) were individually housed and acclimated to a standard powdered rodent diet for 1-3 days. Water was offered ad libitum throughout the study. Mice were initially anesthetized in a chamber using an 3% isoflurane with oxygen (1.0 L/min), and then maintained at 1.5% via nose cone (without intubation). A small incision (˜5 mm) was made just left of midline and just above the rib cage at the level of the suprasternal notch. The muscle tissue was retracted to expose the area above the pleural cavity. The lobes of the thymus were separated and retracted to expose the aortic arch. Fine surgical forceps with blunted tips were used to expose a region above and below the aorta. A micro blunt hook tied with 7-0 silk surgical suture was looped under the aorta and the suture pulled through. The suture was tied-off against a small piece of blunted 27 G needle and the needle was then removed creating the aortic constriction (a 60-70% constriction of the lumen). The incision was closed using 6-0 silk suture for the muscle layer, then the skin with Medbond. The sham procedure was identical without ligation of aorta. Depending on the individual study designs, drug administration began either on the day of surgery, or 1-2 weeks after surgery (detailed in figure legends) and continued until the end of study. Compounds were administered in the mouse chow unless otherwise noted in FIG. 12 legends. TAC study duration was either 6 weeks or 10 weeks in duration. All TAC study endpoints were collected at the end of study. Following heart dissections, samples were either snap frozen in liquid nitrogen and stored at −80° C. or placed in 10% neutral buffered formalin until analysis.
Echocardiography: For mouse TAC studies, echocardiography was performed on a Vevo 2100 high frequency imaging system. Animals were anesthetized with 2-3% isoflurane and sedation maintained with 1% isoflurane with animals on a heating pad. B-mode imaging of three cardiac cycles was used to assess ejection fraction (EF), end diastolic volume (EDV), end systolic volume (ESV), LV mass, and heart rate. ECG was used to measure heart rate during the echocardiography procedure.
NADPH dehydrogenase [quinone]-1 (NQO1) activity: Left ventricular (LV) tissue NQO1 activity was determined using an NQO1 assay kit per manufacturer's protocol (Abcam, Cambridge MA)
The KEAP1 blockers/Nrf2 activators, (R)-3-(1,4-dimethyl-1H-benzo[d][1,2,3]triazol-5-yl)-3-(3-(((R)-2-ethyl-7-hydroxy-2,3-dihydropyrido[2,3-f][1,4]oxazepin-4(5H)-yl)methyl)-4-methylphenyl)propanoic acid, hydrochloride, or a tautomer thereof (Example 1) (in dose-response) and (S)-3-(1,4-dimethyl-1H-benzo[d][1,2,3]triazol-5-yl)-3-(3-(((R)-2-ethyl-2,3-dihydropyrido[3,4-f][1,4]oxazepin-4(5H)-yl)methyl)-4-methylphenyl)-2,2-dimethylpropanoic acid (Example B) were evaluated in a 10-week mouse TAC model of severe hemodynamic stress.
FIG. 12 depicts the effect of the KEAP1-kelch domain blockers/Nrf2 activators (R)-3-(1,4-dimethyl-1H-benzo[d][1,2,3]triazol-5-yl)-3-(3-(((R)-2-ethyl-7-hydroxy-2,3-dihydropyrido[2,3-f][1,4]oxazepin-4(5H)-yl)methyl)-4-methylphenyl)propanoic acid, hydrochloride, or a tautomer thereof (Compound of Example 1) and (S)-3-(1,4-dimethyl-1H-benzo[d][1,2,3]triazol-5-yl)-3-(3-(((R)-2-ethyl-2,3-dihydropyrido[3,4-f][1,4]oxazepin-4(5H)-yl)methyl)-4-methylphenyl)-2,2-dimethylpropanoic acid (Compound B) on cardiac function, remodeling, and NQO1 enzyme activity in the murine 10-week TAC model. All compounds were dosed in chow beginning 2-weeks after TAC. […]

Data on one compound can be found in patent publication US11945826B2, “Hydroxypyridoxazepines as NRF2 activators” (GLAXOSMITHKLINE INTELLECTUAL PROPERTY DEVELOPMENT LIMITED, priority 2019, dated 2024).

In the case of `CC[C@@H]1CN(Cc2cc([C@@H](c3ccc4c(nnn4C)c3C)C(C)(C)C(=O)O)ccc2C)Cc2cnccc2O1` [Example B, (S)-3-(1,4-dimethyl-1H-benzo[d][1,2,3]triazol-5-yl)-3-(3-(((R)-2-ethyl-2,3-dihydropyrido[3,4-f][1,4]oxazepin-4(5H)-yl)methyl)-4-methylphenyl)-2,2-dimethylpropanoic acid, reference compound], under “daily in chow for eight weeks from 2 weeks after TAC”, the “cardiac function as assessed by ejection fraction” value was “full normalization of cardiac function”. In addition, for the setting “daily in chow for eight weeks”, the “NAD(P)H quinone oxidoreductase 1 (NQO1) in the LV” value is recorded as “significant dose-related elevations”; the “cardiac hypertrophy (left ventricular mass)” value is reported as “did not influence cardiac hypertrophy”; the “unloading the heart (blood pressure) or heart rate” value is “nor did the ejection fraction change occur by unloading the heart (i.e., lowering blood pressure) or increasing the heart rate”.
